Several values for one entry are separate records, joined by “and”; a condition that tells them apart may be missing. Identical values can stand only once.
How the values were obtained:
[1] = design: method as in PMID 31892167; conditions: rats administered pomegranate juice; cited from earlier work
human recombinant MAO-A = biological target: T1, human recombinant MAO-A (Homo sapiens, UniProt P21397); assay: MAO-Glo MAO-A inhibition assay; type: biochemical; conditions: for IC50: 0–50 μM range, 160 µM substrate, 37 °C, 1 h, read-out: IC50 for MAO-A inhibitory activity; for MAO-A enzyme assay, Percent of control: N=1-3; for inhibition of MAO-A enzyme activity: compared to vehicle
T1 construct: purchased Sigma-Aldrich
T1 sequence (P21397 1-527): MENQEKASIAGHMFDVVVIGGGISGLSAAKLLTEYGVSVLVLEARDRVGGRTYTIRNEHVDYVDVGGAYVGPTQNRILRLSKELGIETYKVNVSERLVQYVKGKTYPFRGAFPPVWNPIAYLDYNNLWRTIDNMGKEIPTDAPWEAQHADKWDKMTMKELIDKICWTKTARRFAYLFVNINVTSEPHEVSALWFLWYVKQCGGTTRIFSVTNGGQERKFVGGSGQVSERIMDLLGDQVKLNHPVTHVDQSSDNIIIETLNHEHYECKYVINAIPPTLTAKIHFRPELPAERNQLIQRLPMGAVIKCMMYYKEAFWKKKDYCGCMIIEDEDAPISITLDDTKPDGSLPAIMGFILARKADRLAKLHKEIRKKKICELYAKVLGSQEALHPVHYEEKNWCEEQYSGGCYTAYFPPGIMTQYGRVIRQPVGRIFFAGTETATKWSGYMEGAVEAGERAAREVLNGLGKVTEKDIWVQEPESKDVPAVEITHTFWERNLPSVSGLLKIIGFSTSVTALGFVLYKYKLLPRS
Procedure: MAO inhibition assays were performed using a MAO-Glo™ Assay kit (Promega) according to the manufacturer’s instructions. Briefly, 1 µg of human recombinant MAO-A and MAO-B enzyme isoforms were incubated with 160 and 16 µM of MAO substrates, respectively. […] The enzyme reaction was quenched by the addition of a luciferin detection reagent. […] An equal volume of dimethyl sulfoxide (0.1%) was added to the enzyme assay as a control. After 1 h of incubation, the luminescence was measured with a multimode microplate reader (Synergy HT, BioTek, Winooski, VT, USA) to determine the MAO enzyme activities. Initially, the inhibition potential of all the test compounds was evaluated at a concentration of 100 μM. The control reaction (with no inhibitor) with vehicle (DMSO 0.1%) was set at 100% activity. To determine IC50 of the test compounds, the dose dependent enzyme assays were performed. We used range of 0.1 to 50 μM concentrations for MAO-A and 0.1 to 200 μM concentrations of test compounds for the MAO-B enzyme activities. The type of enzyme inhibition was determined using variable concentrations of MAO-A substrate (10–360 µM) and MAO-B substrate (2–64 µM) for the respective enzyme assay. […] A Lineweaver–Burk double reciprocal plot was generated, and the mode of inhibition was determined by visual examination of the plot. The slope of the reciprocal plots was plotted against the inhibitor concentrations and determined the x-axis intercept that represented the inhibitor constant, Ki value.

Q: With O=c1oc2cc(O)ccc2c2ccc(O)cc12 [UA, urolithin-A] as the compound, how does the “detection in the brain” value [1] read?
A: The value was “detected in the brains”.

Q: What about the IC50 (human recombinant MAO-A) of the same compound?
A: The IC50 was 5.88 ± 0.69 µM.

Q: And the “MAO-A enzyme assay, Percent of control” value (human recombinant MAO-A; 0.1 µM, listed as UroA)?
A: The value was 103.587% of control and 97.8592% of control and 101.542% of control.

Q: What about the “MAO-A enzyme assay, Percent of control” value (human recombinant MAO-A; 0.5 µM, listed as UroA) of the same compound?
A: The value was 95.9845% of control and 94.0414% of control and 95.8492% of control.

Q: What about the “MAO-A enzyme assay, Percent of control” value (human recombinant MAO-A; 1 µM, listed as UroA) of the same compound?
A: The value was 62.4789% of control and 79.8224% of control and 85.3157% of control.

Q: What about the “MAO-A enzyme assay, Percent of control” value (human recombinant MAO-A; 5 µM, listed as UroA) of the same compound?
A: Its value is 59.251% of control and 60.0082% of control and 51.3175% of control.

Q: What about the “MAO-A enzyme assay, Percent of control” value (human recombinant MAO-A; 10 µM, listed as UroA) of the same compound?
A: The value was 48.1185% of control and 46.1024% of control and 43.7898% of control.

Q: And the “MAO-A enzyme assay, Percent of control” value (human recombinant MAO-A; 25 µM, listed as UroA)?
A: The value was 24.6659% of control and 27.2749% of control and 27.3403% of control.

Q: What about the “MAO-A enzyme assay, Percent of control” value (human recombinant MAO-A; 50 µM, listed as UroA) of the same compound?
A: The value was 13.9758% of control and 16.0253% of control and 16.3887% of control.

Q: What about the “MAO-A enzyme assay, Percent of control” value (human recombinant MAO-A; 100 µM (Figure 1A), listed as UroA, 100 µM) of the same compound?
A: Its value is 13.2811% of control and 14.5442% of control and 14.4558% of control.

Q: What about the “inhibition of MAO-A enzyme activity” value (human recombinant MAO-A; 100 µM) of the same compound?
A: The value was 86%.

Q: Which results are given for O=c1oc2cc(O)ccc2c2ccccc12 [UB, urolithin-B]?
A: IC50 (human recombinant MAO-A): 0.88 µM; MAO-A enzyme assay, Percent of control (human recombinant MAO-A; 0.1 µM, listed as UroB): 101.662% of control and 98.0675% of control and 93.5275% of control; MAO-A enzyme assay, Percent of control (human recombinant MAO-A; 0.5 µM, listed as UroB): 64.4524% of control and 74.8902% of control and 80.9217% of control; MAO-A enzyme assay, Percent of control (human recombinant MAO-A; 1 µM, listed as UroB): 51.8207% of control and 51.0498% of control and 41.9972% of control; MAO-A enzyme assay, Percent of control (human recombinant MAO-A; 5 µM, listed as UroB): 37.9544% of control and 37.4055% of control and 33.2487% of control; MAO-A enzyme assay, Percent of control (human recombinant MAO-A; 10 µM, listed as UroB): 21.8683% of control and 19.2684% of control and 22.2499% of control; MAO-A enzyme assay, Percent of control (human recombinant MAO-A; 25 µM, listed as UroB): 10.1321% of control and 11.7696% of control and 12.9039% of control; MAO-A enzyme assay, Percent of control (human recombinant MAO-A; 50 µM, listed as UroB): 6.787% of control and 6.156% of control and 5.227% of control; MAO-A enzyme assay, Percent of control (human recombinant MAO-A; 100 µM (Figure 1A), listed as UroB, 100 µM): 5.573% of control and 6.858% of control and 6.006% of control; inhibition of MAO-A enzyme activity (human recombinant MAO-A; 100 µM): 94%

Q: Which results are given for O=c1oc2cc(O)ccc2c2cc(O)c(O)cc12 [UC, urolithin-C]?
A: IC50 (human recombinant MAO-A): 29.6 ± 1.8 µM; MAO-A enzyme assay, Percent of control (human recombinant MAO-A; 0.1 µM, listed as UroC): 81.5785% of control and 83.2586% of control and 93.5154% of control; MAO-A enzyme assay, Percent of control (human recombinant MAO-A; 0.5 µM, listed as UroC): 88.4995% of control and 88.7443% of control and 76.6736% of control; MAO-A enzyme assay, Percent of control (human recombinant MAO-A; 1 µM, listed as UroC): 95.9222% of control and 92.2777% of control and 91.5145% of control; MAO-A enzyme assay, Percent of control (human recombinant MAO-A; 5 µM, listed as UroC): 81.1285% of control and 71.4874% of control and 89.8253% of control; MAO-A enzyme assay, Percent of control (human recombinant MAO-A; 10 µM, listed as UroC): 68.5636% of control and 69.9396% of control and 63.7804% of control; MAO-A enzyme assay, Percent of control (human recombinant MAO-A; 25 µM, listed as UroC): 64.6896% of control and 58.5532% of control and 52.6539% of control; MAO-A enzyme assay, Percent of control (human recombinant MAO-A; 50 µM, listed as UroC): 46.6421% of control and 44.3022% of control and 44.6686% of control; MAO-A enzyme assay, Percent of control (human recombinant MAO-A; 100 µM (Figure 1A), listed as UroC, 100 µM): 11.345% of control and 12.577% of control and 11.352% of control; inhibition of MAO-A enzyme activity (human recombinant MAO-A; 100 µM): 88%

Reference: article PMC7345905, “Microbial Metabolite Urolithin B Inhibits Recombinant Human Monoamine Oxidase A Enzyme” (Metabolites, 2020)
